This note sets out measurements from US6540977B1, “Cyanidin compositions and therapeutic and diagnostic uses therefor” (Medarex, Inc., priority 1996, dated 2003).

The assay deals with T1, human FcγRI (Homo sapiens, UniProt P12314).
T1 construct: expressed in transfected cells; host or cells: mouse IIA1.6 B cells
The experiment in a line: Staining of IIA1.6 B cell transfectants expressing human FcγRI. Conditions: unconjugated Cy5; FcγRI transfectants vs untransfected IIA1.6. Format: binding. How it is done: To assess the specificity of binding of PE-Cy5 conjugates to FcγRI, a series of FcR-transfectants, each transfectant engineered to express one FcR molecular type, was tested. Recipient IIA1.6 cells mouse B cells are devoid of IgG receptors; samples were transfected with each of the genes encoding the different human Fc receptors for IgG (FcγRI, CD64; Van Vugt M J, et al., 1996, Blood 87:3593; FcγRIIa, CD32; FcγRIIb1, CD32, Van den Herik-Oudijk I E, et al., 1995, Blood 85:2202) and for IgA receptor FcαR, CD89 (Morton H C, et al., 1995, J Biol Chem 270:29781) derived from the A20 B cell lymphoma (Morton, H C, et al., supra). Transfectants were stained with different PE-Cy5 mAb conjugates (covalently linked to antibodies to CD3, CD4, or CD8). […]
Untransfected IIA1.6 B-cells and these cells transfected with the gene for human FcγRI (see references, supra), 2×10^5 cells in 20 μl per test, were stained for one hour at 4° C. with 10 μl Cy5. […] All fluorescence experiments were performed using band filter gates for excitation and emission wavelengths appropriate for PE-Cy5 described supra, so that diminished activity for Cy5 in comparison with PE and PE-Cy5 is due to comparatively low absorption by Cy5 at 488 nm.

T1 sequence (P12314 16-374): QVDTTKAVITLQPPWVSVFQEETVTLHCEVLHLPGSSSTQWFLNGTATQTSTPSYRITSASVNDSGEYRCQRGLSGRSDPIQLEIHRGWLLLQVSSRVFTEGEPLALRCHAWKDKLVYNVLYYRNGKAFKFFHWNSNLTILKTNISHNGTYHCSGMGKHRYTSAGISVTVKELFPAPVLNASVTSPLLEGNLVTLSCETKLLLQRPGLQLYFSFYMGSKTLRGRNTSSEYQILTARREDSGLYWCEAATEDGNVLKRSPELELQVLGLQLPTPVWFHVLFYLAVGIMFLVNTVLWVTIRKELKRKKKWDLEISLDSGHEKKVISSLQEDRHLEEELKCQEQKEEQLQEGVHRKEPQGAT

Regarding “5,5′-bis-sulfo-1,1′-(ε-carboxyphenyl)-3,3,3′,3′-tetramethylindodicarbocyanin-disuccinimidyl ester [Cy5]”, the “mean fluorescent intensity of transfectants versus control cells” value is recorded as “at least an order of magnitude greater”.
